Experimental data reported in ChEMBL document CHEMBL5331097, “Synthesis and evaluation of a new class of MIF-inhibitors in activated macrophage cells and in experimental septic shock in mice” (Eur J Med Chem, 2023).
Activity calls are given as the source filed them. The rule behind the calls is not given here.

Key:
[1] = biological target: T1, Macrophage migration inhibitory factor (Homo sapiens, UniProt P14174); experiment: Inhibition of human recombinant MIF enolase activity using phenylpyruvate as substrate
T1 sequence (P14174 whole entry): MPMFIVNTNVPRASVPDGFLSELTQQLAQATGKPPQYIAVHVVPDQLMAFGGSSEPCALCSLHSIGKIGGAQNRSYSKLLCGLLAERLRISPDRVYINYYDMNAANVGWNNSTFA

[2] = biological target: T1, Macrophage migration inhibitory factor; experiment: Inhibition of human recombinant MIF ketonase activity using phenylpyruvate as substrate
RAW264.7 [3] = experiment: Reduction of macrophage activation in LPS induced mouse RAW264.7 cells assessed as reduction in TNF-alpha production at 50 uM pretreated for 30 mins followed by LPS addition after 24 hrs by ELISA method; type: functional, cell-based; settings: time 24.5 hrs
RAW264.7 [4] = experiment: Reduction of macrophage activation in LPS induced mouse RAW264.7 cells assessed as NF-kappaB activation at 50 uM pretreated for 30 mins followed by LPS addition measured after 24 hrs relative to control; type: functional; design: scale not given: the % may be the effect or the level left; settings: time 24.5 hrs
RAW264.7 [5] = experiment: Antiinflammatory activity in LPS induced mouse RAW264.7 cells assessed as reduction of ROS production at 50 uM pretreated for 30 mins followed by LPS addition measured after 24 hrs measured by fluorescence based assay; type: functional, cell-based; settings: time 24.5 hrs
RAW264.7 [6] = experiment: Antiinflammatory activity in LPS induced mouse RAW264.7 cells assessed as reduction of nitrite production at 50 uM pretreated for 30 mins followed by LPS addition measured after 24 hrs measured by Griess reagent method; type: functional, cell-based; settings: time 24.5 hrs
RAW264.7 [7] = experiment: Reduction of macrophage activation in LPS induced mouse RAW264.7 cells assessed as reduction in IL-6 production at 50 uM pretreated for 30 mins followed by LPS addition after 24 hrs by ELISA method; type: functional, cell-based; settings: time 24.5 hrs
RAW264.7 [8] = experiment: Antiproliferative activity against LPS induced mouse RAW264.7 cells at 50 uM measured after 24 hrs; type: functional, cell-based
RAW264.7 [9] = experiment: Antiproliferative activity against LPS induced mouse RAW264.7 cells assessed as decrease in number of living cells at 50 uM pretreated for 30 mins followed by LPS addition measured after 24 hrs relative to control; type: functional; design: scale not given: the % may be the effect or the level left; settings: time 24.5 hrs
RAW264.7 [10] = experiment: Reduction of macrophage activation in LPS induced mouse RAW264.7 cells assessed as NF-kappaB activation at 50 uM pretreated for 30 mins followed by LPS addition measured after 24 hrs; type: functional, cell-based; settings: time 24.5 hrs
Mus musculus = experiment: Protection against C57BL/6 mouse assessed as increase in LPS-induced colonic temperature at 1.8 mg/kg, ip for 30 mins followed by LPS addition measured from 130 to 360 mins; type: functional, organism-based; settings: time 160-390 min

| SMILES | IC50 ([1]; read-out: IC50) [µM] | IC50 ([2]; read-out: IC50) [µM] | further results |
| --- | --- | --- | --- |
| O=C1/C(=C/c2ccc3c(c2)OCO3)CCc2cc(O)ccc21 | 65.8 | 22 |  |
| O=C1/C(=C/c2cccc(O)c2)CCc2cc(O)ccc21 | 111 | 19.6 |  |
| O=C1/C(=C/c2ccccc2O)Cc2ccccc21 | 401 | 40.7 |  |
| O=C1/C(=C/c2ccc(O)cc2)CS(=O)(=O)c2ccccc21 | 102 | 33.4 |  |
| O=C1/C(=C/c2ccccc2)COc2cc(O)ccc21 | 23.4 | 42.7 |  |
| COc1ccc2c(c1)C(=O)/C(=C/c1cccc(O)c1O)C2 | 17 | 9.88 |  |
| CC(C)c1ccc(/C=C2\CCc3cc(O)ccc3C2=O)cc1 | 4.43 | 2.12 |  |
| COc1ccc2c(c1)CC/C(=C\c1ccc(O)c(OC)c1)C2=O | 53 | 49.2 |  |
| COc1cc(/C=C2\CCc3cc(OC)c(OC)cc3C2=O)ccc1O | 104 |  | IC50 [2]: Not Active |
| COc1ccc2c(c1)CC/C(=C\c1ccc(C)cc1)C2=O | 2620 |  | IC50 [2]: Not Active |
| O=C1/C(=C/c2ccc(O)cc2)COc2ccccc21 | 72.7 | 127 |  |
| COc1ccc2c(c1)C(=O)/C(=C/c1ccc(OC)c(O)c1)C2 | 73.8 | 204 |  |
| Cc1ccc(/C=C2\CCc3cc(O)ccc3C2=O)cc1 | 71.4 | 51.5 |  |
| O=C1/C(=C/c2cccc(O)c2)CCc2ccccc21 | 35.9 | 25.4 |  |
| O=C1/C(=C/c2ccc(O)cc2)CCCc2ccccc21 | 13.8 | 67.2 |  |
| COc1ccc2c(c1)C/C(=C\c1cccc(O)c1O)C2=O | 28.9 | 67.3 |  |
| COc1ccc2c(c1)CC/C(=C\c1cccnc1)C2=O | 81.4 | 63.4 |  |
| N#Cc1ccc(/C=C2\CCc3cc(O)ccc3C2=O)cc1 |  | 68 | IC50 [1]: Not Active |
| COc1cc(/C=C2\CCc3cc(O)ccc3C2=O)ccc1O | 30.9 | 30.4 |  |
| COc1cc(/C=C2\CCc3ccccc3C2=O)ccc1O |  | 51.1 |  |
| O=C1/C(=C/c2ccc(O)cc2)CSc2ccccc21 | 827 | 99.3 |  |
| O=C1/C(=C/C=C/c2ccccc2)CCc2cc(O)ccc21 |  | 35.2 | IC50 [1]: Not Active |
| O=C1/C(=C/c2ccccc2O)CCc2cc(O)ccc21 | 50.2 | 39.1 |  |
| COc1ccc2c(c1)CC/C(=C\c1ccc(O)cc1)C2=O | 2.98 | 2.99 |  |
| O=C1/C(=C/c2cc(O)cc(O)c2)CCc2ccccc21 | 24.9 | 65 |  |

| SMILES | IC50 ([1]; read-out: IC50) [µM] | IC50 ([2]; read-out: IC50) [µM] | further results |
| --- | --- | --- | --- |
| O=C1/C(=C/c2ccccn2)CCc2cc(O)ccc21 | 65.9 | 32.1 |  |
| O=C1/C(=C/c2ccco2)CCc2cc(O)ccc21 | 38.2 | 31.4 |  |
| O=C1/C(=C/c2ccccc2)CCc2cc(O)ccc21 | 1.99 | 2.04 | Activity (RAW264.7 [3]): Active; Activity (RAW264.7 [4]): ~35%; Activity (RAW264.7 [5]): inactive; Activity (RAW264.7 [6]): Active; Activity (RAW264.7 [7]): Active; Activity (RAW264.7 [8]): inactive |
| O=C1/C(=C/c2ccc(O)cc2)CCc2cc(O)ccc21 |  | 23.9 | IC50 [1]: Not Active |
| COc1ccc(/C=C2\CCc3cc(O)ccc3C2=O)cc1 | 44 | 67.2 |  |
| COc1ccc2c(c1)C(=O)/C(=C/c1ccc(O)c(OC)c1)C2 | 38.3 | 19.8 |  |
| O=C1/C(=C/c2ccc(O)c(O)c2)Cc2ccccc21 |  | 12.9 | IC50 [1]: Not Active |
| COc1ccc(/C=C2\Cc3ccccc3C2=O)cc1O | 1.32 | 4.95 | Activity (RAW264.7 [3]): Active; Activity (RAW264.7 [9]): 80.46%; Activity (RAW264.7 [10]): inactive; Activity (RAW264.7 [7]): Active |
| COc1ccc2c(c1)CC/C(=C\c1ccncc1)C2=O | 107 | 58.8 |  |
| O=C1/C(=C/c2ccc(O)cc2)Cc2ccccc21 | 1.22 | 0.88 | Activity (RAW264.7 [3]): Active; Activity (RAW264.7 [10]): inactive; Activity (RAW264.7 [7]): Active; Activity (RAW264.7 [8]): inactive |
| CCN(CC)CCOc1ccc(/C=C2\CCc3cc(O)ccc3C2=O)cc1 | 41.3 | 8.75 |  |
| O=C1/C(=C/c2ccc(O)cc2)COc2cc(O)ccc21 | 8.72 | 1.54 | Activity (RAW264.7 [3]): Active; Activity (RAW264.7 [10]): inactive; Activity (RAW264.7 [6]): Active; Activity (RAW264.7 [7]): Active; Activity (RAW264.7 [8]): inactive |
| COc1ccc2c(c1)CC/C(=C\c1ccccc1)C2=O | 126 | 48.9 |  |
| O=C1/C(=C/c2ccc[nH]2)CCc2cc(O)ccc21 | 81.3 | 162 |  |
| O=C1/C(=C/c2ccc(O)cc2)CCc2ccccc21 | 1.94 | 49.2 | Activity (RAW264.7 [3]): Active; Activity (RAW264.7 [4]): ~35%; Activity (RAW264.7 [7]): Active; Activity (RAW264.7 [8]): inactive; Activity (Mus musculus): Active |
| CN(C)c1ccc(/C=C2\CCc3cc(O)ccc3C2=O)cc1 | 39.7 | 25.7 |  |
| O=C1/C(=C/c2c[nH]c3ccccc23)CCc2cc(O)ccc21 | 210 | 60.7 |  |
| O=C1/C(=C/c2cccc(O)c2O)Cc2ccccc21 | 39.3 | 2.05 |  |
| COc1cc(/C=C2\CCc3cc(O)ccc3C2=O)cc(OC)c1OC | 484 | 64.7 |  |
| COc1ccc2c(c1)CC/C(=C\c1ccc(O)c(O)c1)C2=O | 132 | 78 |  |
| O=C1/C(=C/c2ccccc2O)CCc2ccccc21 | 1160 | 29.8 |  |
| O=C1/C(=C/c2cccnc2)CCc2cc(O)ccc21 | 33.3 | 72.6 |  |
| COc1cc(/C=C2\Cc3ccccc3C2=O)ccc1O | 14.5 | 96.5 |  |
| O=C1/C(=C/c2cccs2)CCc2cc(O)ccc21 | 6.46 | 51 |  |
